Results taken from patent publication US4956294A, “Culture of Streptoverticillium synroense for producing an antibacterial” (Merck & Co., Inc., priority 1989, dated 1990).
Values after ≈ are worked out from the molar mass of the structure shown. “Also recorded” adds a separate entry of the source.

Columns and labels:
[1] = system: Xanthomonas vesicatoria 815; experiment: Inhibition zone, agar plate; type: cell-based; details: 15λ, read-out: Inhibition Zone Diameter
[2] = system: Bordetella bronchiseptica (3771); experiment: Protection and survival of infected mice; details: intraperitoneal
C. perfringens 3508 = experiment: microbe, parasite or virus in culture; type: cell-based; details: Clostridium perfringens, 3508, 48 h
Escherichia coli 1418 = experiment: Inhibition zone, agar plate; type: cell-based; details: 15λ, read-out: Inhibition Zone Diameter
[3] = system: Pasteurella multocida (4678); experiment: Protection and survival of infected mice; details: intraperitoneal
Proteus vulgaris 1012 = experiment: Inhibition zone, agar plate; type: cell-based
Sal. typhimurium 3860 = experiment: Agar dilution, antagonist-free medium; details: Salmonella enterica, 20 h
[4] = system: Streptococcus agalactiae 2875; experiment: Inhibition zone, agar plate; type: cell-based; details: 15λ, read-out: Inhibition Zone Diameter

With `C[C@H](CNC(=O)[C@H]1N=C(c2cccc(O)c2O)O[C@@H]1C)C(=O)N[C@@H]1CCCN(O)C1=O` [L-654,040, 2-(2,3-dihydroxyphenyl)-4,5-dihydro-N-[3-[(1-hydroxy-2-oxo-3(R)-piperidinyl)-amino]-2(R)-methyl-3-oxopropyl]-5R-methyl-4S-oxazolecarboxamide] the zone of inhibition at 500 µg/mL ([1]; 0.5 mg/ml in distilled H2O) was 0 mm, the zone of inhibition at 2000 µg/mL ([1]; 2 mg/ml in distilled H2O) was 0 mm and the protection against infection [2] was “did not protect”. For the same compound, the survival time ([2]; 160 mg/kg x 2, significant only in Pasteurella-infected animals) was “prolongation of survival time was observed; also recorded: did prolong the survival time”, the MIC (C. perfringens 3508) was 64 µg/mL (≈ 147 µM) and the zone of inhibition at 500 µg/mL (Escherichia coli 1418; 0.5 mg/ml in distilled H2O) was 0 mm. The zone of inhibition at 2000 µg/mL (Escherichia coli 1418; 2 mg/ml in distilled H2O) was 13 mm, the protection against infection [3] was “did not protect” and the “statistical significance of prolonged survival” value ([3]; two Pasteurella tests) was “statistically significant at one level in two Pasteurella tests”. For the same compound, the survival time ([3]; 160 mg/kg x 2) was “prolongation of survival time was observed; also recorded: did prolong the survival time; also recorded: increases survival time”, the zone of inhibition at 500 µg/mL (Proteus vulgaris 1012; Proteus vulgaris, 1012, read-out: Inhibition Zone Diameter) was 24 mm and the zone of inhibition at 2000 µg/mL (Proteus vulgaris 1012; Proteus vulgaris, 1012, 2 mg/ml in distilled H2O, 15λ, read-out: Inhibition Zone Diameter) was 34 mm. For the same compound, the MIC (Sal. typhimurium 3860) was > 256 µg/mL, the zone of inhibition at 500 µg/mL ([4]; 0.5 mg/ml in distilled H2O) was 12 mm and the zone of inhibition at 2000 µg/mL ([4]; 2 mg/ml in distilled H2O) was 13 mm.
